One compound from patent EP2845588A1, “PIN1 inhibitors for use in the prevention and/or treatment of theileriosis, and related applications” (Centre National de la Recherche Scientifique (CNRS), priority 2013, dated 2015) can be followed below.

The test system of experiment [1] is parasite load in infected TBL3 cells. Briefly: Western blot analysis of parasite actin (TaActin) in infected TBL3 cells. The format is cell-based, T.annulata. Conditions: 72h treatment. Background: A western blot detects proteins with antibodies after separation by electrophoresis.
The subject of experiment [2] is c-Jun and FBW7 ubiquitination in TBL3 cells. Briefly: Ubiquitination of endogenous c-Jun and FBW7 in TBL3 cells. It counts as cell-based, bovine.
Experiment [3] has as its system parasite-infected cells (Theileria parva - TpMD409). Briefly: Cell viability XTT assay, TpMD409. It counts as cell-based, bovine. The note with it: 72h. The protocol:
(§1) All infected bovine cell lines used in this study were previously described: TBL3 cells were derived from in vitro infection of the spontaneous bovine-B lymphosarcoma cell line, BL3, with Hissar stock of T.annulata. The TpMD409 lymphocyte cell line are infected with T. parva. The culture conditions of these cell lines were previously described by Moreau et al., 1999. Cells were cultured in RPMI 1640 (Gibco-BRL, Paisley, UK), supplemented with 10% heat-inactivated Fetal calf serum, 4mM L-Glutamine, 25mM HEPES, 10µM β-mercaptoethanol and 100µg/ml penicillin/streptomycin in a humidified 5%CO2 atmosphere at 37°C. HepG2, NIH/3T3 and MEF cells lines were cultured in DMEM (Gibco-BRL, Paisley, UK), supplemented with 10% heat-inactivated Fetal calf serum, 4mM L-Glutamine, 25 mM HEPES, 10µM β-mercaptoethanol and 100µg/ml penicillin/streptomycin in a humidified 5% CO2 atmosphere at 37°C. Cell numbers, as judged by Trypan Blue exclusion test, were determined by counting cells using a Countess automated cell counter (Invitrogen, CA, USA). The anti-parasite drug Buparvaquone (BW720c) was used at 200ng/ml for 72 hours. BW720c has no effect on growth of uninfected cells. […]
A general note: Tetrazolium dyes change colour on reduction, which living cells bring about.

The next experiment deals with HepG2 cells. Briefly: Cell viability XTT assay, HepG2. The note with it: 72h. It counts as cell-based, human. As for the experimental part: All infected bovine cell lines used in this study were previously described: TBL3 cells were derived from in vitro infection of the spontaneous bovine-B lymphosarcoma cell line, BL3, with Hissar stock of T.annulata. The TpMD409 lymphocyte cell line are infected with T. parva. The culture conditions of these cell lines were previously described by Moreau et al., 1999. Cells were cultured in RPMI 1640 (Gibco-BRL, Paisley, UK), supplemented with 10% heat-inactivated Fetal calf serum, 4mM L-Glutamine, 25mM HEPES, 10µM β-mercaptoethanol and 100µg/ml penicillin/streptomycin in a humidified 5%CO2 atmosphere at 37°C. HepG2, NIH/3T3 and MEF cells lines were cultured in DMEM (Gibco-BRL, Paisley, UK), supplemented with 10% heat-inactivated Fetal calf serum, 4mM L-Glutamine, 25 mM HEPES, 10µM β-mercaptoethanol and 100µg/ml penicillin/streptomycin in a humidified 5% CO2 atmosphere at 37°C. Cell numbers, as judged by Trypan Blue exclusion test, were determined by counting cells using a Countess automated cell counter (Invitrogen, CA, USA). The anti-parasite drug Buparvaquone (BW720c) was used at 200ng/ml for 72 hours. BW720c has no effect on growth of uninfected cells.
1×10^4 cells were plated in 96-well plates in triplicate and Buparvaquone, Juglone or PiB was added. […]

For a further experiment, the target named is T1, TaPIN WT (Theileria annulata, UniProt Q4UG71).
T1 construct: expressed in transfected cells; host or cells: TBL3 (T. annulata-infected bovine B cells), electroporated with the pREV-HA-FLAG-RIL2 TaPIN plasmid
Briefly: CyclinD1-Luciferase reporter assay, TaPIN WT in TBL3 cells. It counts as cell-based, T. annulata. Conditions: parasite-infected cells (TBL3). As for the experimental part: Bovine cells were transfected with the 5xHRE (Staller et al., 2003) or CyclinD1- (Wulf et al., 2001) Luciferase reporters, using electroporation (Neon kit, Invitrogen, CA, USA). Mouse cells were transfected using Lipofectamine 2000 (Invitrogen, CA, USA). Transfections efficiencies were normalized to Renilla activity by co-transfection of a pRL-TK Renilla reporter plasmid (Promega, Ref.: E6241). Luciferase assays were performed 36h post-transfection using the Dual-Luciferase Reporter Assay System (Promega, Ref: E1980) in a microplate luminometer. Relative luminescence was represented as the ratio Firefly/Renilla luminescence, compared with the corresponding empty vector control. The 5xHRE promoter-Luciferase construct was obtained from P Staller (Biotech Research & Innovation Centre, Copenhagen, […]).
In general terms: In a reporter assay the amount or activity of a reporter protein is the signal.

Experiment [4] relates to TpPIN1 (TP01_0114) transcripts. Briefly: Quantitative PCR of TpPIN transcripts in T.parva-infected cells. The format is cell-based. As for the experimental part:
Total cellular RNAs were extracted using an RNeasy Plus Mini Kit (Qiagen, Hilden, Germany) and parasite RNAs were extracted using the classical Trizol Protocol. cDNA synthesis was performed with the Reverse Transcriptase Superscript III (Invitrogen, CA, USA).
Quantitative PCR amplification was performed in the ABI 7500 machine (Applied Biosystems, CA, USA) using the Sybr Green reagent (Applied Biosystems, CA, USA) using the primers listed in Table 5 below. The detection of a single product was verified by dissociation curve analysis. Relative quantities of mRNA were analyzed using the delta Ct method. The βactin qPCR was used for normalization. Table 5: qPCR primers

The subject of experiment [5] is TBL3 cells transiently expressing TaPIN Mutant A53P. Briefly: Proliferation of TBL3 cells transiently expressing TaPIN Mutant A53P. It counts as cell-based, bovine. Conditions: transient expression of TaPIN Mutant A53P. As for the experimental part: as §1
In the next experiment the test system is TpPIN protein. Briefly: Immunoblot of TpPIN protein in nuclear and cytoplasmic fractions of T. parva-infected cells. The format is cell-based. The note with it: nuclear and cytoplasmic fractions of T. parva-infected TpM409 B cells. As for the experimental part: Cells were lysed in the following buffer: 5mM Tris HCL pH7.5, 40mM KCL, 2mM MgCL2, 0.5mM EDTA, 0.05mM Spermidine and Spermine, 0.1% NP-40, H2O. Lysates were incubated for 5min on ice and centrifuged for 10min at 5000rpm. The supernatant constitutes the Cytoplasmic fraction and the pellet constitutes the nuclear fraction.
Total proteins were extracted with Laemmli lysis, sonicated: 15 secs ON / 30 secs OFF for 5 min, resolved on 10.5% acrylamide/bis-acrylamide SDS-PAGE gels and transferred to nitrocellulose membranes (Thermo Fisher Scientific, MA, USA) in transfer buffer. Protein transfer was assessed by Ponceau-red staining. Membranes were blocked in Tris-buffered saline pH7.4 containing 0.1% Tween-20 and 5% milk for 1 h at room temperature. Incubations with primary antibodies were carried out at 4°C overnight using antibody dilutions as manufacturer recommendations in Trisbuffered saline pH7.4, 0.05% Tween-20 and 5% milk. Following 1 h incubation with an anti-rabbit or anti-mouse peroxidase-conjugated antibody (Sigma, St Louis, MO, USA) at room temperature, proteins were detected by chemiluminescence (Thermo Fisher Scientific, MA, USA) following the manufacturer's instructions. […]

T1 sequence (Q4UG71 33-142): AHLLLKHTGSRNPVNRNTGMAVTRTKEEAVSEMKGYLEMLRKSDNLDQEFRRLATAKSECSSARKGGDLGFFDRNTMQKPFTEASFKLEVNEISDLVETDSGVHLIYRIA

For `CC(C)(C)C1CCC(CC2=C(O)C(=O)c3ccccc3C2=O)CC1` (stereo not drawn) [Buparvaquone, 2-((4-tert-butylcyclohexyl)methyl)-3-hydroxy-1,4-naphthoquinone], in experiment [1], the “parasite load, parasite actin (TaActin)” value was “decreased parasite load”. The “ubiquitination of endogenous c-Jun protein” value in experiment [2] (TBL3 cells) is “elevated”. The “rescue of the drug effect on c-Jun ubiquitination by overexpressing the TaPIN A53P mutant” value in experiment [2] (TBL3 cells overexpressing TaPIN A53P) was “rescued”. Moreover, the “viability of parasite-infected cells” value in experiment [3] is reported as “decreased the viability”. Also, the “viability of HepG2 cells” value with HepG2 cells is reported as “reduce the viability”. Moreover, on TaPIN WT, the “CyclinD1 promoter activation by TaPIN WT” value is “reversed”. For the same compound, the TpPIN1 transcripts entry in experiment [4] is “reduced”. For the same compound, the “drug effect on TBL3 cell proliferation on overexpression of the TaPIN Mutant A53P” value in experiment [5] is recorded as “rescued”. Moreover, the TpPIN protein result in the experiment with TpPIN protein is listed as “decreased”.
